Test results from patent publication US20130209625A1, “METHODS AND COMPOSITIONS FOR STIMULATING A FELIDAE T1R RECEPTOR” (MONELL CHEMICAL SENSES CENTER, priority 2010, published 2013).

Tested on: Felidae T1R1/T1R3 receptor
Test: Calcium imaging (fura-2, F340/F380) of HEK293 cells expressing T1R1/T1R3 receptor and Gα15, responses to taste stimuli
Type: cell-based, cat
From the text: Provided herein are methods for determining if two or more test compounds have an augmenting effect on the T1R1/T1R3 receptor where each test compound alone elicits a small or moderate response comprising contacting the receptor with the test compounds, and measuring the response of the receptor to the test compounds, wherein the compounds have an augmenting effect on the receptor if the response of the receptor to the compounds in a mixture in which each compound is presented at a given concentration is greater than the response to either one of the compounds alone at its given respective concentration. Responses are measured in terms of the Fluorescence Ratio F340/F380 as detailed in the Examples. Responses are gauged by comparing each response with the response to 100 μM isoproterenol, the positive control which activates the cell through Gα15. A null response is less than 10% of the control response. A small or moderate response is equal to or greater than 10% of the control response. In some preferred embodiments, the T1R1/T1R3 receptor is a Felidae T1R1/T1R3 receptor
b. Cell Transfection: HEK293 cell lines that stably express Gα15 were grown and maintained at 37° C. DMEM supplemented with 10% FBS and MEM nonessential amino acids (Invitrogen); the medium for Gα15 transfected cells contains 5 μg/ml blasticidin (Invitrogen). Cells were co-transfected with expression constructs by using Lipofectamine 2000 reagent (Invitrogen). T1R1/T1R3 transfected cells were selected using Zeocin (100 μg/ml) and hygromycin (400 μg/ml).
c. Establishing stable cell lines: Transfected cells were maintained in antibiotic selective medium until colonies appear. Single colonies were identified two weeks after transfection and were examined for RNA expression by RT-PCR and for protein expression by immunohistochemistry. Positive colonies confirmed by RT-PCR and immunohistochemistry were stocked in liquid nitrogen as stable cell lines expressing T1R1/T1R3.
a. In vitro assays: HEK293 cells' responses to taste stimuli were measured using calcium imaging techniques (Nelson et al. 2001, Li et al. 2002, Gomez et al. 2005). Transfected cells were loaded with fura-2 containing buffer for one hour. Coverslips with fura-2 loaded cells were then placed in a recording chamber and continuously superfused with Hank's salt solution (Nelson et al. 2001). Enhancement solutions were applied by switching the superfusion, which allowed a complete change of bath solutions within 5-20 seconds, based on preliminary experiments with fluorescent dye for each setup and recording chamber. Calcium imaging recordings were performed using Imagemaster-5 multi-wavelength quantitative fluorescence imaging system (Photon Technology International, Inc.). Cells were illuminated with UV light at two wavelengths (340 or 380 nm). Intracellular calcium activity was computed from the ratio of emitted light from the 340/380 nm wavelengths. Excitation light was shuttered between acquisitions, with exposure times being minimized (typically 50-100 msec). Images are normally acquired every 2-5 sec. Using these conditions, cells remain viable in the recording setup for more than 2 h without significant effects of dye bleaching or baseline shifts. The use of ratiometric imaging reduces the problems associated with fluorescence quenching or dye loss that can generate artifacts using single-wavelength dyes.
b. Amino acid stimulation of the HEK transfected cell lines: In a typical experiment to determine if there is an interaction at the receptor between two compounds, the response (peak height of intracellular calcium concentration) to each compound as well as a mixture of the two compounds is measured. If each compound alone elicits a small or moderate response, it will be necessary to compare responses to single compounds with a mixture in which each compound is presented at its initial test concentration. In this manner we can determine if the enhancement is greater than simple additivity. […]

O=P([O-])([O-])OP(=O)([O-])O.[Na+].[Na+].[Na+] [sodium pyrophosphate, trisodium pyrophosphate]
response of HEK293 cell (calcium imaging) (FIG. 3, 10 mM sodium pyrophosphate presented singly): null responses
response of HEK293 cell (calcium imaging) (FIG. 3, 20 mM sodium pyrophosphate presented singly): null responses
response of HEK293 cells (calcium imaging) (FIG. 4, 5 cells, 20 mM sodium pyrophosphate alone): null responses
response of HEK293 cell (calcium imaging) (FIG. 6, 20 mM sodium pyrophosphate alone): weak response

N[C@@H](Cc1c[nH]cn1)C(=O)O [L-histidine]
augmentation of response by pyrophosphate (FIG. 4, 5 cells): not augmented
response of HEK293 cells (calcium imaging) (FIG. 4, 5 cells, 25 mM L-histidine alone): null responses
response of HEK293 cell (calcium imaging) (FIG. 5, 25 mM L-histidine alone): null responses

NCCCC[C@H](N)C(=O)O [L-lysine]
response of HEK293 cells (calcium imaging) (FIG. 4, 5 cells, 25 mM L-lysine alone): null responses
response of HEK293 cell (calcium imaging) (FIG. 6, 25 mM L-lysine alone): null response (A null response is less than 10% of the control response)

O=C(O)[C@@H]1CCCN1 [L-proline]
response of HEK293 cell (calcium imaging) (FIG. 1, 25 mM L-proline alone, vs 100 μM isoproterenol positive control): null responses
response of HEK293 cells (calcium imaging) (FIG. 2, 3 cells, 50 mM L-proline alone): null responses
response of HEK293 cell (calcium imaging) (FIG. 3, 50 mM L-proline presented singly): null responses

C[C@H](N)C(=O)O [L-alanine]
response of HEK293 cell (calcium imaging) (FIG. 5, 25 mM L-alanine alone): null responses
